From ChEMBL document CHEMBL4483862, “Open-source discovery of chemical leads for next-generation chemoprotective antimalarials” (2018)

System: Plasmodium berghei
Test: Luciferase/luciferin-expressing antifolate-resistant parasites were used to infect a culture of HepG2 cells that were pre-incubated with compounds. Infected hepatocytes emit light due to the luciferase reaction. Assay results are presented as the percent inhibition of light emission compared to control. […]
Format: functional
Conditions: sporozoite; for IC90: read-out: LUCIFERASE INFECTION ASSAY - IC90

Structure (SMILES)	IC90	other results
Cc1ccc(-n2c(C)cc(C(=O)COc3c(CO)cc(F)cc3CO)c2C)cc1C	> 10 µM	IC50 (PBLUC_HILL_SLOPE 1.7, PBLUC_R_SQUARED 0.588, read-out: LUCIFERASE INFECTION ASSAY - IC50): 6.56 µM
CCOC(=O)c1c(C)[nH]c(C(=O)CSc2nnc(C3CC3)n2N)c1C	0.847 µM	IC50 (PBLUC_HILL_SLOPE 1.71, PBLUC_R_SQUARED 0.964, read-out: LUCIFERASE INFECTION ASSAY - IC50): 0.235 µM
O=C1CCN(Cc2ccc(Cl)cc2)N1	> 15.7 µM	IC50 (PBLUC_HILL_SLOPE 1.7, PBLUC_R_SQUARED 0.276, read-out: LUCIFERASE INFECTION ASSAY - IC50): 14.1 µM
Oc1cc(C(F)(F)F)nc2ccc(F)cc12	> 14.3 µM	IC50 (PBLUC_HILL_SLOPE 1.66, PBLUC_R_SQUARED 0.446, read-out: LUCIFERASE INFECTION ASSAY - IC50): 6.54 µM
Cc1cc(C(=O)COc2cccnc2[N+](=O)[O-])c(C)n1-c1ccc2c(c1)OCO2	> 10 µM	IC50 (PBLUC_HILL_SLOPE 1.7, PBLUC_R_SQUARED 0.197, read-out: LUCIFERASE INFECTION ASSAY - IC50): 8.75 µM
O=C(Nc1ccccc1Cc1ccccc1)c1cc2c(nc3sccn32)s1	4.88 µM	IC50 (PBLUC_HILL_SLOPE 1.68, PBLUC_R_SQUARED 0.818, read-out: LUCIFERASE INFECTION ASSAY - IC50): 1.32 µM
COc1ccc(C(N)=O)c(OCCOc2ccc(C(C)C)c(C)c2)c1	> 10 µM	IC50 (PBLUC_HILL_SLOPE 1.7, PBLUC_R_SQUARED 0.184, read-out: LUCIFERASE INFECTION ASSAY - IC50): 4.61 µM
Cc1cc(N2CCN(CCO)CC2)n2ncc(-c3ccc(F)cc3)c2n1	7.96 µM	IC50 (PBLUC_HILL_SLOPE 1.69, PBLUC_R_SQUARED 0.874, read-out: LUCIFERASE INFECTION ASSAY - IC50): 2.17 µM
Cc1c(C(=O)Nc2nc(CN3CC(C)CC(C)C3)cs2)[nH]c2c1C(=O)CC(C)(C)C2 (stereo not given)	9.99 µM	IC50 (PBLUC_HILL_SLOPE 1.7, PBLUC_R_SQUARED 0.746, read-out: LUCIFERASE INFECTION ASSAY - IC50): 2.74 µM
CC(CC(=O)Nc1ccc(Cl)cc1)NCC(C)(C)N1CCOCC1 (stereo not given)	> 10 µM	IC50 (PBLUC_HILL_SLOPE 1.7, PBLUC_R_SQUARED 0.0143, read-out: LUCIFERASE INFECTION ASSAY - IC50): 4.7 µM
O=C(O/N=C(\Nc1ccc(OC(F)(F)F)cc1)c1c(Cl)cccc1Cl)c1ccccc1C(F)(F)F	> 6.14 µM	IC50 (PBLUC_HILL_SLOPE 1.69, PBLUC_R_SQUARED 0.564, read-out: LUCIFERASE INFECTION ASSAY - IC50): > 6.14 µM
CC(NC(=S)N/N=C/c1cc(Cl)cc(Cl)c1O)c1ccccc1 (stereo not given)	8.46 µM	IC50 (PBLUC_HILL_SLOPE 1.69, PBLUC_R_SQUARED 0.56, read-out: LUCIFERASE INFECTION ASSAY - IC50): 2.31 µM
CC(=O)Nc1ccc(OCc2ccccc2C(F)(F)F)cc1	5.57 µM	IC50 (PBLUC_HILL_SLOPE 1.68, PBLUC_R_SQUARED 0.57, read-out: LUCIFERASE INFECTION ASSAY - IC50): 1.51 µM
CCN(CC)CCNc1cc(-c2cccs2)nc2ccccc12	> 10.1 µM	IC50 (PBLUC_HILL_SLOPE 1.7, PBLUC_R_SQUARED 0.474, read-out: LUCIFERASE INFECTION ASSAY - IC50): 3.96 µM
O=[N+]([O-])c1cc(/C=N/O)ccc1Oc1ccc(Cl)cc1	> 11.3 µM	IC50 (PBLUC_HILL_SLOPE 1.72, PBLUC_R_SQUARED 0.416, read-out: LUCIFERASE INFECTION ASSAY - IC50): 6.18 µM
CN(CC(=O)NC1CC1)C(=O)CNc1ccccc1Oc1ccccc1	4.68 µM	IC50 (PBLUC_HILL_SLOPE 1.7, PBLUC_R_SQUARED 0.39, read-out: LUCIFERASE INFECTION ASSAY - IC50): 1.29 µM
CS(=O)(=O)Nc1cccc(-c2cn3c(-c4ccc5c(c4)OCO5)cnc3cn2)c1	> 8.08 µM	IC50 (PBLUC_HILL_SLOPE 1.71, PBLUC_R_SQUARED 0.507, read-out: LUCIFERASE INFECTION ASSAY - IC50): 6.08 µM
Cc1[nH]ncc1CCCNc1nc(-c2ccsc2)nc2ccccc12	> 10 µM	IC50 (PBLUC_HILL_SLOPE 1.72, 3.12, PBLUC_R_SQUARED 0.159, 0.360, read-out: LUCIFERASE INFECTION ASSAY - IC50): 5.35 µM
O=C(Nc1ncccc1O)c1ccc(-n2cnc3ccccc32)cc1	6.03 µM	IC50 (PBLUC_HILL_SLOPE 1.70, 2.04, PBLUC_R_SQUARED 0.693, 0.681, read-out: LUCIFERASE INFECTION ASSAY - IC50): 1.8 µM
CN(C)Cc1ccccc1CNC(=O)Nc1ccc(Cl)c(Cl)c1	> 2 µM	IC50 (PBLUC_HILL_SLOPE 1.7, PBLUC_R_SQUARED 0.0619, read-out: LUCIFERASE INFECTION ASSAY - IC50): 0.986 µM

Structure (SMILES)	IC90	other results
Cc1sc2nc(-c3cccnc3)nc(NCCc3ccc(S(N)(=O)=O)cc3)c2c1C	> 10 µM	IC50 (PBLUC_HILL_SLOPE 1.71, PBLUC_R_SQUARED 0.31, read-out: LUCIFERASE INFECTION ASSAY - IC50): 7.09 µM
Clc1ccc(-c2csc3ncnc(Sc4nnc(N5CCOCC5)n4C4CC4)c23)cc1	> 10 µM	IC50 (PBLUC_HILL_SLOPE 1.69, PBLUC_R_SQUARED 0.173, read-out: LUCIFERASE INFECTION ASSAY - IC50): 7.1 µM
O=C(Nc1ncccc1O)c1ccc(CN2C(=O)c3ccccc3S2(=O)=O)cc1	> 10 µM	IC50 (PBLUC_HILL_SLOPE 1.72, 0.775, PBLUC_R_SQUARED 0.614, 0.500, read-out: LUCIFERASE INFECTION ASSAY - IC50): 4.22 µM
CCCc1nc2ccccc2n1CC(=O)N1N=C(c2ccc(Cl)cc2)CC1c1ccco1 (stereo not given)	> 10 µM	IC50 (PBLUC_HILL_SLOPE 1.73, PBLUC_R_SQUARED 0.265, read-out: LUCIFERASE INFECTION ASSAY - IC50): > 10 µM
Cc1ccccc1C(=O)OCC(=O)c1cc(C)n(Cc2ccco2)c1C	3.07 µM	IC50 (PBLUC_HILL_SLOPE 1.7, PBLUC_R_SQUARED 0.868, read-out: LUCIFERASE INFECTION ASSAY - IC50): 0.843 µM
CCOC(=O)C1=C(C)NC(C)=C(C(=O)OCC)C1c1ccc(Cl)cc1Cl	> 8.29 µM	IC50 (PBLUC_HILL_SLOPE 1.65, PBLUC_R_SQUARED 0.211, read-out: LUCIFERASE INFECTION ASSAY - IC50): > 8.29 µM
CN(c1ccccc1)S(=O)(=O)c1ccc(C(=O)N2CCN(Cc3ccc(Cl)s3)CC2)cc1	> 10 µM	IC50 (PBLUC_HILL_SLOPE 1.66, PBLUC_R_SQUARED 0.494, read-out: LUCIFERASE INFECTION ASSAY - IC50): 8.02 µM
COc1ccccc1/C=C(\C#N)c1ccc(C)cc1	> 13.2 µM	IC50 (PBLUC_HILL_SLOPE 1.71, PBLUC_R_SQUARED 0.0423, read-out: LUCIFERASE INFECTION ASSAY - IC50): 10.6 µM
C/C(=N\OCc1ccccc1)c1cc(-c2ccccc2)c(C(F)(F)F)s1	> 8.79 µM	IC50 (PBLUC_HILL_SLOPE 1.7, PBLUC_R_SQUARED 0.604, read-out: LUCIFERASE INFECTION ASSAY - IC50): 4.91 µM
CN(Cc1ccccc1Cl)C(=O)c1ccc(NC(=O)c2ccco2)cc1	> 10 µM	IC50 (PBLUC_HILL_SLOPE 1.69, PBLUC_R_SQUARED 0.585, read-out: LUCIFERASE INFECTION ASSAY - IC50): 7.96 µM
CCn1c(SCCOc2ccccc2Cl)nnc1-c1cc(-c2ccccc2)nc2ccccc12	> 10 µM	IC50 (PBLUC_HILL_SLOPE 1.65, PBLUC_R_SQUARED 0.274, read-out: LUCIFERASE INFECTION ASSAY - IC50): > 10 µM
O=C(Nc1ccnn1Cc1ccccc1)c1ccc(C(=O)c2ccccc2)cc1	> 10 µM	IC50 (PBLUC_HILL_SLOPE 1.71, PBLUC_R_SQUARED 0.158, read-out: LUCIFERASE INFECTION ASSAY - IC50): 5.74 µM
Cn1cc(-c2cnc3ccc(Cc4ccc(F)cc4)nn23)cn1	> 10 µM	IC50 (PBLUC_HILL_SLOPE 1.72, PBLUC_R_SQUARED 0.782, read-out: LUCIFERASE INFECTION ASSAY - IC50): 4.99 µM
CC12CCC(C(=O)N3CCN(c4cccc(Cl)c4)CC3)(OC1=O)C2(C)C (stereo not given)	> 8.76 µM	IC50 (PBLUC_HILL_SLOPE 1.72, PBLUC_R_SQUARED 0.0862, read-out: LUCIFERASE INFECTION ASSAY - IC50): > 8.76 µM
CCCC/C=C/c1cnc2ccc(NC(CC)CO)nn12 (stereo not given)	> 11.4 µM	IC50 (PBLUC_HILL_SLOPE 1.69, PBLUC_R_SQUARED 0.254, read-out: LUCIFERASE INFECTION ASSAY - IC50): 7.08 µM
CC(C)n1ncc2cc(NC(=O)c3cccc(S(=O)(=O)NCc4ccccc4)c3)cnc21	> 10 µM	IC50 (PBLUC_HILL_SLOPE 1.68, PBLUC_R_SQUARED 0.408, read-out: LUCIFERASE INFECTION ASSAY - IC50): 6.12 µM
CN(CC(=O)Nc1nnc(-c2ccccc2)o1)Cc1ccccc1C(F)(F)F	3.69 µM	IC50 (PBLUC_HILL_SLOPE 1.69E+03, PBLUC_R_SQUARED 0.413, read-out: LUCIFERASE INFECTION ASSAY - IC50): 3.69 µM
COc1ccc(C(CNC(=O)c2ccc(Oc3ccc(Cl)cc3[N+](=O)[O-])cc2)N2CCCC2)cc1 (stereo not given)	> 10 µM	IC50 (PBLUC_HILL_SLOPE 1.72, PBLUC_R_SQUARED 0.19, read-out: LUCIFERASE INFECTION ASSAY - IC50): 6.08 µM
O=C(Nc1ccc2c(c1)OCO2)c1cnc(N2CCN(Cc3ccc(Cl)cc3)C2=O)o1	> 10 µM	IC50 (PBLUC_HILL_SLOPE 1.65, PBLUC_R_SQUARED 0.722, read-out: LUCIFERASE INFECTION ASSAY - IC50): 3.79 µM
FC(F)(F)c1cccc(Nc2nnnc3ccccc23)c1	3.71 µM	IC50 (PBLUC_HILL_SLOPE 1.72, PBLUC_R_SQUARED 0.746, read-out: LUCIFERASE INFECTION ASSAY - IC50): 1.03 µM
